Laboratory results as given in patent publication US20240092835A1, “NOVEL PEPTIDES CAPABLE OF ALTERING NK CELL ACTIVITY” (Massachusetts Institute of Technology, priority 2022, published 2024).

Columns and labels:
NKG2A+/NKG2C− NK cells = test: NK cell activation markers in NKG2A+/NKG2C- NK cells incubated with peptide and K562 expressing HLA-E (inhibition); type: cell-based, human; settings: for percentage of CCL3+ NK cells / percentage of CD107a+ NK cells / percentage of IFNG+ NK cells / percentage of TNF+ NK cells: NKG2A+/NKG2C- NK cells, K562/HLA-E
Procedure, shortened: (§1)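 K562 + HLA-E, pulsed with human/CMV proteome peptides → incubated with sorted NK subsets → surface marker staining, % positive cells. Increase = activation; decrease = inhibition.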

NKG2A−/NKG2C+ NK cells = test: NK cell activation markers in NKG2A-/NKG2C+ NK cells incubated with peptide and K562 expressing HLA-E (activation); type: cell-based, human; settings: for percentage of CCL3+ NK cells / percentage of CD107+ NK cells / percentage of IFNG+ NK cells / percentage of TNF+ NK cells: NKG2A-/NKG2C+ NK cells, K562/HLA-E
Procedure, shortened: as §1

NKG2A−/NKG2C− NK cells = test: NK cell activation markers in control NKG2A-/NKG2C- NK cells incubated with peptide and K562 expressing HLA-E; type: cell-based, human
Procedure, shortened: as §1

HLA-E = target: T1, HLA-E (Homo sapiens, UniProt P13747); test: HLA-E surface stabilization assay with RMA-S/HLA-E cells; type: cell-based; settings: 30 μM peptide, 16 hours, anti-HLA-E antibody
T1 construct: expressed in transfected cells; host or cells: RMA-S/HLA-E cells (antigen processing-defective lymphoma cell line)
Experimental: HLA-E surface expression was assessed by measuring geometric mean fluorescence intensity (GeoMFI) in RMA-S cells following immunofluorescence staining with an anti-HLA-E antibody (Table 14). Increased GeoMFI was indicative of increased HLA-E surface expression stability following novel peptide exposures (FIG. 3).

[1] = K562 expressing HLA-E, CD107a, IFNG, TNF, CCL3

T1 sequence (P13747 22-358): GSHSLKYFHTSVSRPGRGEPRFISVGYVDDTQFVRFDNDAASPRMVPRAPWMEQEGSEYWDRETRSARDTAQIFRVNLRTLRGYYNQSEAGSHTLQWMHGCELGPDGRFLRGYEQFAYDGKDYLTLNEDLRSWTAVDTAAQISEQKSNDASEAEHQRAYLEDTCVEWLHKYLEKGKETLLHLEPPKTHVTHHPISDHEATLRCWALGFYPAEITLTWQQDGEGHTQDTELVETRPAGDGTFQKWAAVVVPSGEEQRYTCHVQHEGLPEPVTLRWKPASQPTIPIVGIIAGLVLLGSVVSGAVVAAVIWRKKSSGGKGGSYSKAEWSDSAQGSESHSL
T1 sequence (P61769 21-119 partner): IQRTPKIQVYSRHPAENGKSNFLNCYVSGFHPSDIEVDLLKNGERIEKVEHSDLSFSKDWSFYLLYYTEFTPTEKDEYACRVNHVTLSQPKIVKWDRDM

VMPGRTLCF [human11, peptide TACR3 226-234 derived from the human proteome]
effect on NKG2A+/NKG2C− NK cell inhibition (in words) (NKG2A+/NKG2C− NK cells; [1]): strong inhibitory
percentage of CCL3+ NK cells (NKG2A+/NKG2C− NK cells; Trial 1): 4.05%
percentage of CD107a+ NK cells (NKG2A+/NKG2C− NK cells; Trial 1): 0.35%
percentage of IFNG+ NK cells (NKG2A+/NKG2C− NK cells; Trial 1): 0.13%
percentage of TNF+ NK cells (NKG2A+/NKG2C− NK cells; Trial 1): 0.05%
percentage of CCL3+ NK cells (NKG2A+/NKG2C− NK cells; Trial 2): 7.9%
percentage of CD107a+ NK cells (NKG2A+/NKG2C− NK cells; Trial 2): 1.08%
percentage of IFNG+ NK cells (NKG2A+/NKG2C− NK cells; Trial 2): 0.53%
percentage of TNF+ NK cells (NKG2A+/NKG2C− NK cells; Trial 2): 0.21%
percentage of CCL3+ NK cells (NKG2A+/NKG2C− NK cells; Trial 3): 3.93%
percentage of CD107a+ NK cells (NKG2A+/NKG2C− NK cells; Trial 3): 1.25%
percentage of IFNG+ NK cells (NKG2A+/NKG2C− NK cells; Trial 3): 0.6%
percentage of TNF+ NK cells (NKG2A+/NKG2C− NK cells; Trial 3): 0.35%
percentage of CCL3+ NK cells (NKG2A+/NKG2C− NK cells; Trial 4): 1.77%
percentage of CD107a+ NK cells (NKG2A+/NKG2C− NK cells; Trial 4): 1.09%
percentage of IFNG+ NK cells (NKG2A+/NKG2C− NK cells; Trial 4): 0.29%
percentage of TNF+ NK cells (NKG2A+/NKG2C− NK cells; Trial 4): 0.23%
percentage of CCL3+ NK cells (NKG2A+/NKG2C− NK cells; Trial 5): 2.68%
percentage of CD107a+ NK cells (NKG2A+/NKG2C− NK cells; Trial 5): 0.66%
percentage of IFNG+ NK cells (NKG2A+/NKG2C− NK cells; Trial 5): 0.09%
percentage of TNF+ NK cells (NKG2A+/NKG2C− NK cells; Trial 5): 0%
percentage of CCL3+ NK cells (NKG2A+/NKG2C− NK cells; Trial 6): 1.02%
percentage of CD107a+ NK cells (NKG2A+/NKG2C− NK cells; Trial 6): 1.02%
percentage of IFNG+ NK cells (NKG2A+/NKG2C− NK cells; Trial 6): 0.05%
percentage of TNF+ NK cells (NKG2A+/NKG2C− NK cells; Trial 6): 0%
effect on NKG2A−/NKG2C+ NK cell activation (in words) (NKG2A−/NKG2C+ NK cells; [1]): strong activating effects
percentage of CCL3+ NK cells (NKG2A−/NKG2C+ NK cells; Trial 1): 72.1%
percentage of CD107+ NK cells (NKG2A−/NKG2C+ NK cells; Trial 1): 70.6%
percentage of IFNG+ NK cells (NKG2A−/NKG2C+ NK cells; Trial 1): 63.1%
percentage of TNF+ NK cells (NKG2A−/NKG2C+ NK cells; Trial 1): 57.2%
percentage of CCL3+ NK cells (NKG2A−/NKG2C+ NK cells; Trial 2): 83.5%
percentage of CD107+ NK cells (NKG2A−/NKG2C+ NK cells; Trial 2): 79.9%
percentage of IFNG+ NK cells (NKG2A−/NKG2C+ NK cells; Trial 2): 76.4%
percentage of TNF+ NK cells (NKG2A−/NKG2C+ NK cells; Trial 2): 71.3%
percentage of CCL3+ NK cells (NKG2A−/NKG2C+ NK cells; Trial 3): 80.8%
percentage of CD107+ NK cells (NKG2A−/NKG2C+ NK cells; Trial 3): 81%
percentage of IFNG+ NK cells (NKG2A−/NKG2C+ NK cells; Trial 3): 76.8%
percentage of TNF+ NK cells (NKG2A−/NKG2C+ NK cells; Trial 3): 72%
percentage of CCL3+ NK cells (NKG2A−/NKG2C+ NK cells; Trial 4): 65%
percentage of CD107+ NK cells (NKG2A−/NKG2C+ NK cells; Trial 4): 66.8%
percentage of IFNG+ NK cells (NKG2A−/NKG2C+ NK cells; Trial 4): 59.4%
percentage of TNF+ NK cells (NKG2A−/NKG2C+ NK cells; Trial 4): 53.6%
percentage of CCL3+ NK cells (NKG2A−/NKG2C+ NK cells; Trial 5): 69.8%
percentage of CD107+ NK cells (NKG2A−/NKG2C+ NK cells; Trial 5): 70.2%
percentage of IFNG+ NK cells (NKG2A−/NKG2C+ NK cells; Trial 5): 65%
percentage of TNF+ NK cells (NKG2A−/NKG2C+ NK cells; Trial 5): 62.5%
percentage of CCL3+ NK cells (NKG2A−/NKG2C+ NK cells; Trial 6): 39.9%
percentage of CD107+ NK cells (NKG2A−/NKG2C+ NK cells; Trial 6): 42.5%
percentage of IFNG+ NK cells (NKG2A−/NKG2C+ NK cells; Trial 6): 35.3%
percentage of TNF+ NK cells (NKG2A−/NKG2C+ NK cells; Trial 6): 33.5%
percentage CCL3+ NK cells (NKG2A−/NKG2C− NK cells; Trial 1): 27.1%
percentage CD107+ NK cells (NKG2A−/NKG2C− NK cells; Trial 1): 21.7%
percentage TNF+ NK cells (NKG2A−/NKG2C− NK cells; Trial 1): 3.75%
percentage of IFNG+ NK cells (NKG2A−/NKG2C− NK cells; Trial 1): 11.4%
percentage CCL3+ NK cells (NKG2A−/NKG2C− NK cells; Trial 2): 49.5%
percentage CD107+ NK cells (NKG2A−/NKG2C− NK cells; Trial 2): 28.7%
percentage TNF+ NK cells (NKG2A−/NKG2C− NK cells; Trial 2): 7.72%
percentage of IFNG+ NK cells (NKG2A−/NKG2C− NK cells; Trial 2): 21.3%
percentage CCL3+ NK cells (NKG2A−/NKG2C− NK cells; Trial 3): 44.1%
percentage CD107+ NK cells (NKG2A−/NKG2C− NK cells; Trial 3): 38.6%
percentage TNF+ NK cells (NKG2A−/NKG2C− NK cells; Trial 3): 14.8%
percentage of IFNG+ NK cells (NKG2A−/NKG2C− NK cells; Trial 3): 33.5%
percentage CCL3+ NK cells (NKG2A−/NKG2C− NK cells; Trial 4): 30.9%
percentage CD107+ NK cells (NKG2A−/NKG2C− NK cells; Trial 4): 28.9%
percentage TNF+ NK cells (NKG2A−/NKG2C− NK cells; Trial 4): 9.48%
percentage of IFNG+ NK cells (NKG2A−/NKG2C− NK cells; Trial 4): 18.5%
percentage CCL3+ NK cells (NKG2A−/NKG2C− NK cells; Trial 5): 18.3%
percentage CD107+ NK cells (NKG2A−/NKG2C− NK cells; Trial 5): 14.9%
percentage TNF+ NK cells (NKG2A−/NKG2C− NK cells; Trial 5): 3.82%
percentage of IFNG+ NK cells (NKG2A−/NKG2C− NK cells; Trial 5): 10.5%
percentage CCL3+ NK cells (NKG2A−/NKG2C− NK cells; Trial 6): 13.7%
percentage CD107+ NK cells (NKG2A−/NKG2C− NK cells; Trial 6): 14.8%
percentage TNF+ NK cells (NKG2A−/NKG2C− NK cells; Trial 6): 2.69%
percentage of IFNG+ NK cells (NKG2A−/NKG2C− NK cells; Trial 6): 6.09%
HLA-E surface expression stability (GeoMFI) (HLA-E; Trial 1): 3152 GeoMFI
HLA-E surface expression stability (GeoMFI) (HLA-E; Trial 2): 2914 GeoMFI
HLA-E surface expression stability (GeoMFI) (HLA-E; Trial 3): 3432 GeoMFI
HLA-E surface expression stability (GeoMFI) (HLA-E; Trial 4): 3610 GeoMFI
